The target of data set [1] is T1, cell surface human leukocyte elastase (HLE-CS) on U937 Clone 10 cells (Homo sapiens, UniProt P08246).
T1 construct: endogenous in cells; host or cells: human U937 Clone 10 cells
T1 sequence (P08246 30-267): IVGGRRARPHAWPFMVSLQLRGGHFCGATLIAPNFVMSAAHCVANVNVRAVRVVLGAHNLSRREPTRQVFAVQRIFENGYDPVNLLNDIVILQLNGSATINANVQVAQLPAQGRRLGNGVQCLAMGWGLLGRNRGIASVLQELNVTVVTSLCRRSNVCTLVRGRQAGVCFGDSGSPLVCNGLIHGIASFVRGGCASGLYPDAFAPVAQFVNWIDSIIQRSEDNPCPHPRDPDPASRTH
Description: Cellular adherence to glass (HLE-CS interaction). It counts as cell-based. Conditions: 2,000 U937 cells per well. The text has this:
Cellular adherence. […] […] Unattached cells were removed by washing using AIM-V, and attached cells were fixed by application of 4% paraformaldehyde. Attached cells were counted by light microscopy.

The test system of data set [2] is Lactobacillus spp. The arrangement: method as in Catry et al., 2015. Conditions: ref Catry et al., 2015; cited from earlier work.
Data set [3] deals with Leishmania amazonensis promastigotes. The arrangement: method as in Andrade-Neto et al., 2016. As to conditions: ref Andrade-Neto et al., 2016; read-out: IC50 for killing Leishmania amazonensis promastigotes; cited from earlier work.
Data set [4] in a line: Diet-induced obesity (DIO) mouse model, lipoprotein levels. Conditions: 60% fat diet, daily oral gavage, vs vehicle control. It counts as in vivo, C57BL/6J mice. As to the method:
Animal Studies. Animal studies were performed by Jackson Laboratory (Bar Harbor, ME), an OLAW-Assured and AAALAC accredited institution. All research was reviewed and approved by the Institutional Animal Care and Use Committee (IACUC) prior to commencing. The study used 16–17 weeks old male DIO C57BL/6J mice that had been maintained on a 10% (control) or 60% high-fat diet. […] Treatment was delivered by daily oral gavage at the same time of day for 12 weeks. Blood was collected by retro-orbital bleed every 3 weeks for measurement of total cholesterol, LDL, HDL, triglycerides, […] free fatty acids and glucose using the Beckman Coulter AU680 Chemistry System.
Food consumption was monitored twice weekly, and body weight was monitored weekly. As mice gained weight on the 60% high-fat diet during the study, dosing was adjusted accordingly. Mice were monitored for adverse effects (e.g., labored breathing, aberrant weight change). Three mice were lost during the study. […] The mice lost in the ezetimibe group were due to a severe bite wound and an unknown causes. The mouse lost in the Alphataxin group was due to an abnormal amount of gas in the stomach attributed to a gavaging error.

Data set [5] addresses T2, Human leukocyte elastase (HLE-G) (Homo sapiens, UniProt P08246).
T2 construct: purchased Athens Research & Technology 16-14-051200
T2 sequence (P08246 30-267): T1 sequence (P08246 30-267)
Kind of data set: Inhibition of HLE-G enzymatic activity. It counts as biochemical. As for the experimental part:
Inhibition of HLE-G enzymatic activity. Two-fold serial dilutions of HLE-G in 100 µl Tris-buffered saline (pH 7.8) were added to rows of wells of a microtiter plate as previously described ([Bristow et al., 1991]). […] The microtiter plate was incubated for 10 min at 37°C. The HLE-G substrate (Succinyl-L-Ala-L-Ala-L-Ala-p-nitroanilide, Sigma) was added to all wells, and absorbance at 405 nm was detected kinetically at 23°C using an MRX plate reader.

On the set-up of data set [6]: method as in Nissen et al., 2016. Conditions: ref Nissen et al., 2016, cited from earlier work.

pIC50: −log10 of the molar value.

One may read the pIC50 as the IC50 on a negative log10 scale, so that one unit is a factor of ten. As for `O=C1[C@H](CC[C@H](O)c2ccc(F)cc2)[C@@H](c2ccc(O)cc2)N1c1ccc(F)cc1` [Ezetimibe], the “HLE-CS Adherent cells” value in data set [1] (at optimal concentration) is recorded as 40 ± 3. Moreover, the “HLE-CS Optimal concentration” value in data set [1] (optimal adherence concentration) worked out at 100 nM. Besides, the “effect on intestinal microbiome” value in data set [2] is “increasing the Lactobacillus spp”. For the same compound, the negative-log IC50 (pIC50) in data set [3] is 4.52; in data set [5] (compound vs. HLE-G (75 µM), 10 min at 37°C, 5 min with substrate), 3.56. In data set [4] (after 3 weeks, ezetimibe 10 mg/kg, Alphataxin 5 mg/kg), the LDL levels result is on record as “significantly decreased”. Moreover, in data set [4] (weeks 3, 6, 8), the triglyceride levels result is “did not”. Besides, in data set [5] (molar excess of compound to HLE-G at IC50), the “HLE-G Molar excess” value stood at 3.7. In addition, the “effectiveness in lowering LDL levels vs PCSK9 inhibitors” value in data set [6] (p < 0.001) is recorded as “significantly less effective”. Also, in data set [6], the “individuals with muscle symptoms” value is 28%.
